Reference: ChEMBL document CHEMBL1149932, “DNA - gyrase inhibition and antibacterial activity of fluoro-quinolones: influence of the position of the fluorine(s)” (1992)
In brackets after ≈: the same amount, converted by molar mass.

What was measured:
[1] = target: T1, DNA gyrase (Escherichia coli) (UniProt P0AES6+P0AES4); experiment: In vitro antibacterial activity expressed as MIC against Escherichia coli HR DNA gyrase; type: protein-complex assay
[2] = target: T1, DNA gyrase (Escherichia coli); experiment: In vitro inhibitory concentration which show total effect against Escherichia coli HR DNA gyrase; type: protein-complex assay
Proteus mirabilis [3] = experiment: (§1) In vitro antibacterial activity expressed as MIC against Proteus mirabilis
Staphylococcus aureus = experiment: In vitro antibacterial activity expressed as MIC against Staphylococcus aureus; type: functional
Haemophilus influenzae [4] = experiment: (§2) In vitro antibacterial activity expressed as MIC against Haemophilus influenzae
Morganella morganii = experiment: In vitro antibacterial activity expressed as MIC against Morganella morganii II; type: functional
Klebsiella oxytoca [5] = experiment: (§3) In vitro antibacterial activity expressed as MIC against Klebsiella oxytoca
Providencia stuartii = experiment: In vitro antibacterial activity expressed as MIC against Providencia stuartii II; type: functional
Serratia marcescens = experiment: In vitro antibacterial activity expressed as MIC against Serratia marcescens; type: functional
Klebsiella aerogenes [6] = experiment: (§4) In vitro antibacterial activity expressed as MIC against Enterobacter aerogenes
[7] = tested on: Staphylococcus epidermidis; experiment: In vitro antibacterial activity expressed as MIC against Staphylococcus epidermidis; type: functional
Enterococcus faecalis = experiment: In vitro antibacterial activity expressed as MIC against Enterococcus faecalis; type: functional
Providencia rettgeri [8] = experiment: (§5) In vitro antibacterial activity expressed as MIC against Providencia rettgeri
Streptococcus pneumoniae = experiment: In vitro antibacterial activity expressed as MIC against Streptococcus pneumoniae; type: functional
Escherichia coli = experiment: In vitro antibacterial activity expressed as MIC against Escherichia coli; type: functional
Klebsiella aerogenes [9] = experiment: as §4; type: functional
[10] = target: T1, DNA gyrase (Escherichia coli); experiment: In vitro inhibitory least concentration which show effect against Escherichia coli HR DNA gyrase; type: protein-complex assay
Pseudomonas aeruginosa = experiment: In vitro antibacterial activity expressed as MIC against Pseudomonas aeruginosa; type: functional
Haemophilus influenzae [11] = experiment: as §2; type: functional
Providencia rettgeri [12] = experiment: as §5; type: functional
Proteus mirabilis [13] = experiment: as §1; type: functional
Klebsiella oxytoca [14] = experiment: as §3; type: functional
[15] = In vitro antibacterial activity expressed as MIC against Clostridium perfringens; type: functional

SMILES | MIC [1] [µg/mL] | IC0 [2] [µg/mL] | IC100 [2] [µg/mL] | MIC (Staphylococcus aureus) [µg/mL] | MIC (Morganella morganii) [µg/mL] | MIC (Providencia stuartii) [µg/mL] | MIC (Serratia marcescens) [µg/mL] | MIC [7] [µg/mL] | MIC (Enterococcus faecalis) [µg/mL] | MIC (Streptococcus pneumoniae) [µg/mL] | MIC (Escherichia coli) [µg/mL] | MIC (Klebsiella aerogenes [9]) [µg/mL] | IC0 [10] [µg/mL] | MIC (Pseudomonas aeruginosa) [µg/mL] | MIC (Haemophilus influenzae [11]) [µg/mL] | MIC (Providencia rettgeri [12]) [µg/mL] | MIC (Proteus mirabilis [13]) [µg/mL] | MIC (Klebsiella oxytoca [14]) [µg/mL] | MIC [15] [µg/mL] | other results
CCn1cc(C(=O)O)c(=O)c2cc(F)c(N3CCN(C)CC3)cc21 | 0.019 (≈ 0.057 µM) | 0.64 | 20 | – | – | – | – | – | – | – | – | – | – | – | – | – | – | – | – | –
O=C(O)c1cn(C2CC2)c2cc(N3CCNCC3)c(F)cc2c1=O [CIPROFLOXACIN] | 0.009 (≈ 0.0272 µM) | 0.12 | 10 | 0.25 (≈ 0.754 µM) | 0.08 (≈ 0.241 µM) | 0.03 (≈ 0.0905 µM) | 0.03 (≈ 0.0905 µM) | 0.5 (≈ 1.51 µM) | 0.5 (≈ 1.51 µM) | 0.25 (≈ 0.754 µM) | – | – | – | – | – | – | – | – | – | MIC (Proteus mirabilis [3]): 0.008 µg/mL (≈ 0.0241 µM); MIC (Haemophilus influenzae [4]): 0.03 µg/mL (≈ 0.0905 µM); MIC (Klebsiella oxytoca [5]): 0.06 µg/mL (≈ 0.181 µM); MIC (Klebsiella aerogenes [6]): 0.03 µg/mL (≈ 0.0905 µM); MIC (Providencia rettgeri [8]): 0.5 µg/mL (≈ 1.51 µM)
N[C@H]1CCN(c2cc(F)c3c(=O)c(C(=O)O)cn(C4CC4)c3c2)C1 | 0.156 (≈ 0.471 µM) | – | 20 | 8 (≈ 24.1 µM) | 0.25 (≈ 0.754 µM) | 1 (≈ 3.02 µM) | 0.5 (≈ 1.51 µM) | 8 (≈ 24.1 µM) | 16 (≈ 48.3 µM) | 4 (≈ 12.1 µM) | 0.25 (≈ 0.754 µM) | 0.5 (≈ 1.51 µM) | 0.64 | 4 (≈ 12.1 µM) | 0.13 (≈ 0.392 µM) | 16 (≈ 48.3 µM) | 0.5 (≈ 1.51 µM) | 1 (≈ 3.02 µM) | – | –
N[C@H]1CCN(c2ccc3c(=O)c(C(=O)O)cn(C4CC4)c3c2F)C1 | 0.009 (≈ 0.0272 µM) | – | 10 | 0.06 (≈ 0.181 µM) | 0.015 (≈ 0.0453 µM) | 0.06 (≈ 0.181 µM) | 0.03 (≈ 0.0905 µM) | 0.125 (≈ 0.377 µM) | 0.25 (≈ 0.754 µM) | 0.5 (≈ 1.51 µM) | 0.007 (≈ 0.0211 µM) | 0.03 (≈ 0.0905 µM) | 0.32 | 0.25 (≈ 0.754 µM) | 0.007 (≈ 0.0211 µM) | 1 (≈ 3.02 µM) | 0.03 (≈ 0.0905 µM) | 0.06 (≈ 0.181 µM) | 0.5 (≈ 1.51 µM) | –
CCn1cc(C(=O)O)c(=O)c2ccc(C)nc21 | 2.5 (≈ 10.8 µM) | 25 | 200 | – | – | – | – | – | – | – | – | – | – | – | – | – | – | – | – | –
N[C@H]1CCN(c2cc(F)c3c(=O)c(C(=O)O)cn(C4CC4)c3c2F)C1 | 0.078 (≈ 0.223 µM) | – | 10 | 1 (≈ 2.86 µM) | 0.06 (≈ 0.172 µM) | 0.5 (≈ 1.43 µM) | 0.25 (≈ 0.716 µM) | 0.5 (≈ 1.43 µM) | 4 (≈ 11.5 µM) | 4 (≈ 11.5 µM) | 0.06 (≈ 0.172 µM) | 0.25 (≈ 0.716 µM) | 0.32 | 2 (≈ 5.73 µM) | 0.06 (≈ 0.172 µM) | 8 (≈ 22.9 µM) | 0.13 (≈ 0.372 µM) | 0.5 (≈ 1.43 µM) | 1 (≈ 2.86 µM) | –
N[C@H]1CCN(c2ccc3c(=O)c(C(=O)O)cn(C4CC4)c3c2)C1 | 0.009 (≈ 0.0287 µM) | – | 20 | 0.5 (≈ 1.6 µM) | 0.13 (≈ 0.415 µM) | 1 (≈ 3.19 µM) | 0.5 (≈ 1.6 µM) | 0.25 (≈ 0.798 µM) | 4 (≈ 12.8 µM) | 2 (≈ 6.38 µM) | 0.03 (≈ 0.0957 µM) | 0.06 (≈ 0.191 µM) | 0.32 | 0.5 (≈ 1.6 µM) | 0.08 (≈ 0.255 µM) | 8 (≈ 25.5 µM) | 0.13 (≈ 0.415 µM) | 0.25 (≈ 0.798 µM) | – | –
N[C@H]1CCN(c2cc3c(cc2F)c(=O)c(C(=O)O)cn3C2CC2)C1 | 0.005 (≈ 0.0151 µM) | – | 20 | 0.06 (≈ 0.181 µM) | 0.016 (≈ 0.0483 µM) | 0.03 (≈ 0.0905 µM) | 0.03 (≈ 0.0905 µM) | 0.03 (≈ 0.0905 µM) | 0.25 (≈ 0.754 µM) | 0.13 (≈ 0.392 µM) | 0.008 (≈ 0.0241 µM) | 0.016 (≈ 0.0483 µM) | 0.24 | 0.25 (≈ 0.754 µM) | 0.002 (≈ 0.00604 µM) | 0.5 (≈ 1.51 µM) | 0.03 (≈ 0.0905 µM) | 0.03 (≈ 0.0905 µM) | 0.25 (≈ 0.754 µM) | –
